Assay results reported in publication PMC4109680, “Identification and Preclinical Pharmacology of the γ-Secretase Modulator BMS-869780” (International Journal of Alzheimer's Disease, 2014).
Where two headings read alike, the source gives them in different places.

Experiments:
[1] = Triple transgenic (3xTg) mouse time course PK/PD, oral dose, indirect response model; assay type: in vivo; details: female, 3xTg (triple transgenic), plasma
Procedure: (§1) Figure 8 Analysis of the PK/PD relationship for BMS-869780 in rats and mice. Rats were dosed orally with BMS-869780 at 10 mg/kg, and triple transgenic mice were orally dosed at 30 mg/kg and 100 mg/kg. Additional groups of rats and mice were dosed with vehicle alone. Brain and plasma were harvested at 3, 5, 8, 16, and 24 hours after dosing for determination of brain Aβ1-42 and plasma BMS-869780 concentration. Group sizes were 5 rats or 4 mice. Whiskers represent standard error. […] The data were fit to a one-compartment PK model and the predicted plasma BMS-869780 concentrations are shown for mouse (solid lines) and rat (broken line). […] The data were fitted using the indirect pharmacodynamic response model and predicted values are shown (solid lines). (c) Brain Aβ1-42 levels were determined for the rats dosed with BMS-869780 at 10 mg/kg (▼) or vehicle alone (●). The data were fitted using the indirect pharmacodynamic response model and predicted values are shown (dashed line). (d) Brain Aβ1-40 levels determined in the same rats as illustrated in (c).
(§2) All experimental procedures with animals followed National Institutes of Health guidelines and were authorized by and in compliance with policies of the Bristol-Myers Squibb Animal Use and Care Committee. Mice and rats were housed with a 6:00 AM to 6:00 PM light/dark cycle and allowed free access to food and water. For 3xTg mice, BMS-869780 was dosed in three-month-old females by oral gavage at 6 mL/kg in vehicle consisting of 84% polyethylene glycol average molecular weight of 400 (PEG-400), 15% EtOH, and 1% Tween-80 (w/w/w). The compound was dissolved in EtOH and then diluted with PEG-400 and Tween, after which the vial was sealed, vortexed, and sonicated at 56°C for 1 hour. Animals were euthanized by asphyxiation in CO2. Blood was collected by cardiac puncture and placed into ethylene-diaminetetraacetic acid microtainer tubes for the preparation of plasma. The cerebellum was collected for the determination of compound concentration, and the remaining brain was separated into left and right halves before freezing in liquid nitrogen. For the rat time course study, 8- to 12-week-old female Sprague-Dawley rats were obtained from Charles River Laboratories (Wilmington, MA), BMS-869780 was dosed orally at 4 mL/kg, and brain and plasma samples were collected as described for the 3xTg mice. For the four day repeat dose rat study, BMS-869780 was given by oral gavage in vehicle consisting of PEG-400, PEG-200, D-α-tocopheryl polyethylene glycol succinate, Solutol HS 15, in the ratio 80 : 10 : 5 : 5 (w/w/w/w). Methods for the pharmacokinetics studies in rat, dog, and monkey are described below.
(§3) The data generated in the mouse and rat time course experiments were analyzed sequentially by nonlinear regression (WinNonlin Pharsight Corporation, Mountain View, CA). The pharmacokinetic data were best described by a 1-compartment linear model with first-order absorption and elimination. Subsequently, the pharmacodynamic parameters were estimated from the BMS-869780 plasma concentrations and the observed reductions of brain Aβ1-42 or Aβ1-40 by fitting to the equation for inhibition of synthesis. The goodness-of-fit was determined by visual inspection, Akaike Information Criterion, Schwartz Criterion, examination of the residuals and the coefficient of variation of the parameter estimates.

[2] = tested on: brain Aβ1-42; test: as above; assay type: in vivo; details: for IC50: po
Procedure: as §1, §2, §3

[3] = Prediction of human PK and dose by allometric scaling combined with rat PK/PD
Procedure: Interspecies allometric scaling adjusted for brain weight was used to predict human CLTp, while simple allometric scaling was used to predict Vss. Briefly, the Vss and brain weight adjusted CLTp values from nonclinical species were plotted against body weight on a log-log scale to yield estimates of Vss and CLTp × brain weight in humans. The estimated CLTp × brain weight for human was adjusted for the brain weight of humans to yield a predicted CLTp. […] Noncompartmental analysis was performed using WinNonlin software (version 5.0; Pharsight Corporation, Mountain View, CA). The k a for each species was obtained from the IV and PO (nanosuspensions) of rat, dog, and cynomolgus monkey by deconvolution of plasma concentration-time data using Kinetica (version 5.0; Seattle, WA). The bioavailability was estimated from the nanosuspensions from rat, dog, and cynomolgus monkeys. The average k a and F, along with the Vss and CLTp from allometric scaling, were incorporated into a two-compartment model to predict the human oral plasma concentration-time profiles.

[4] = Plasma exposure in rat 4-day oral dosing experiment; assay type: in vivo; details: for AUC(0-t): read-out: AUC (0–24 h); for concentration at 4 day: oral, read-out: Terminal concentration day 4
Procedure: as §2
As a preliminary evaluation of safety in vivo, male and female rats were given 10, 30, and 100 mg/kg BMS-869780 orally once daily for 4 days. Endpoints included brain Aβ1-42, as described above (Figures 7(d) and 7(e)), plasma PK on day 1 and day 3 (Table 4), and histopathology for duodenum, liver, and kidney.

[5] = Mouse 30 mg/kg PO solution (observed 0–24 hours)
[6] = Mouse 100 mg/kg PO solution (observed 0–24 hours)
[7] = Human 700 mg PO suspension (predicted steady state)
[8] = female, rat, plasma, po, 10 mg/kg, Female, Day 1
[9] = female, rat, plasma, po, 10 mg/kg, Female, Day 3
[10] = female, rat, plasma, po, 30 mg/kg, Female, Day 1
[11] = female, rat, plasma, po, 30 mg/kg, Female, Day 3
[12] = female, rat, plasma, po, 100 mg/kg, Female, Day 1
[13] = female, rat, plasma, po, 100 mg/kg, Female, Day 3
[14] = male, rat, plasma, po, 10 mg/kg, Male, Day 1
[15] = male, rat, plasma, po, 10 mg/kg, Male, Day 3
[16] = male, rat, plasma, po, 30 mg/kg, Male, Day 1
[17] = male, rat, plasma, po, 30 mg/kg, Male, Day 3
[18] = male, rat, plasma, po, 100 mg/kg, Male, Day 1
[19] = male, rat, plasma, po, 100 mg/kg, Male, Day 3

Compound: COc1cc(Nc2nc3n(n2)CCCC[C@H]3c2ccc(F)cc2)ccc1-n1cnc(Cl)c1 [BMS-869780]
- k el ([1]; oral, mouse, 1-compartment PK model): 7.78e-05 s⁻¹
- AUC(0-t) [1, 5]: 45.9 µM·h
- AUC(0-t) [1, 6]: 102 µM·h
- Brain Aβ ABEC 24 hr Aβ1-42 [2, 5]: 30.9%
- Brain Aβ ABEC 24 hr Aβ1-42 [2, 6]: 55.1%
- V/F ([2]; mouse): 1.94 L/kg
- Ka1 (30 mg/kg) ([2]; mouse, 30 mg/kg oral): 0.11 h⁻¹
- Ka2 (100 mg/kg) ([2]; mouse, 100 mg/kg oral): 0.046 h⁻¹
- K in ([2]; mouse, calculated): 72 %/h
- K OUT ([2]; mouse, rate constant for degradation of Aβ): 0.72 h⁻¹
- IC50 ([2]; mouse, PD model, read-out: IC50 (plasma concentration required for 50% inhibition of Aβ production)): 3.98 µM
- IC50 ([2]; mouse, read-out: in vivo plasma IC50 for brain Aβ1-42): 4 µM
- Brain Aβ ABEC 24 hr Aβ1-42 [3, 7]: 25%
- Plasma AUC 0–24 hr [3, 7]: 17.8 µM·h
- Cmax ([3]; plasma, oral, Human 700 mg once daily (predicted steady state)): 1.27 µM
- AUC(0-t) ([3]; plasma, Human 700 mg PO suspension (predicted steady state), read-out: Plasma AUC 0–24 hr): 17.6 µM·h
- Terminal concentration day 4 ([4]; 100 mg/kg, Female): 13.7 (±0.9) μM
- AUC (0–24 h) ([4]; 100 mg/kg, Female, Day 3): 316.4 (±77.0) μM·h
- Terminal concentration day 4 ([4]; 100 mg/kg, Male): 9.2 (±3.2) μM
- change of exposure on repeat dosing ([4]; day 1 versus day 3): no loss of exposure between day 1 and day 3
- Cmax [4, 8]: 2.9 µM
- Tmax [4, 8]: 7 h
- AUC(0-t) [4, 8]: 41 µM·h
- Cmax [4, 9]: 2.6 µM
- Tmax [4, 9]: 5 h
- AUC(0-t) [4, 9]: 25 µM·h
- Cmax [4, 10]: 8.2 µM
- Tmax [4, 10]: 5 h
- AUC(0-t) [4, 10]: 152 µM·h
- Cmax [4, 11]: 14.4 µM
- Tmax [4, 11]: 3 h
- AUC(0-t) [4, 11]: 255 µM·h
- Cmax [4, 12]: 10.6 µM
- Tmax [4, 12]: 24 h
- AUC(0-t) [4, 12]: 206 µM·h
- Cmax [4, 13]: 15.5 µM
- Tmax [4, 13]: 4 h
- AUC(0-t) [4, 13]: 316 µM·h
- exposures achieved ([4]; highest dose of 100 mg/kg): > 200 µM·h
- Cmax [4, 14]: 2 µM
- Tmax [4, 14]: 5 h
- AUC(0-t) [4, 14]: 20.2 µM·h
- Cmax [4, 15]: 1.9 µM
- Tmax [4, 15]: 5 h
- AUC(0-t) [4, 15]: 17.5 µM·h
- Cmax [4, 16]: 6.1 µM
- Tmax [4, 16]: 8 h
- AUC(0-t) [4, 16]: 95.2 µM·h
- Cmax [4, 17]: 10.4 µM
- Tmax [4, 17]: 3 h
- AUC(0-t) [4, 17]: 129 µM·h
- Cmax [4, 18]: 7.7 µM
- Tmax [4, 18]: 19 h
- AUC(0-t) [4, 18]: 168 µM·h
- Cmax [4, 19]: 13.2 µM
- Tmax [4, 19]: 7 h
- AUC(0-t) [4, 19]: 217 µM·h
- concentration at 4 day ([4]; rat, plasma, 10 mg/kg, Female): 3 µM
- concentration at 4 day ([4]; rat, plasma, 10 mg/kg, Male): 2.4 µM
- concentration at 4 day ([4]; rat, plasma, 30 mg/kg, Female): 12 µM
- concentration at 4 day ([4]; rat, plasma, 30 mg/kg, Male): 8.9 µM
- AUC ([4]; rat, plasma, po, four daily doses of 10 mg/kg): 17.5 µM·h
